Reference: ChEMBL document CHEMBL3217414, “Trifluoromethyl derivatives of canonical nucleosides: synthesis and bioactivity studies” (Medchemcomm, 2013)
Each block holds one compound with its values, some of them ahead of it.

Columns and labels:
[1] = tested on: Hepatitis B virus; experiment: Antiviral activity against Hepatitis B virus; assay type: functional, organism-based
[2] = tested on: MCF7; experiment: Cytotoxicity against human MCF7 cells assessed as inhibition of cell viability after 48 hrs by MTT assay; assay type: functional, cell-based; settings: for IC50: MCF7, 48 h
[3] = tested on: DU-145; experiment: Cytotoxicity against human DU145 cells assessed as inhibition of cell viability after 48 hrs by MTT assay; assay type: functional, cell-based; settings: for IC50: DU-145, 48 h
[4] = tested on: HaCaT; experiment: Cytotoxicity against human HaCaT cells assessed as inhibition of cell viability after 48 hrs by MTT assay; assay type: cell-based; settings: for IC50: Homo sapiens, HaCaT
[5] = tested on: L6; experiment: Cytotoxicity against rat L6 cells assessed as inhibition of cell viability after 48 hrs by MTT assay; assay type: cell-based; settings: for IC50: Rattus norvegicus, L6, 48 h
[6] = tested on: C6; experiment: Cytotoxicity against rat C6 cells assessed as inhibition of cell viability after 48 hrs by MTT assay; assay type: functional, cell-based; settings: for IC50: C6, 48 h

IC50 [1]: 5 µM
SMILES: Nc1ncnc2c1ncn2[C@H]1C=C(C(F)(F)F)[C@@H](CO)O1

SMILES: Nc1nc2c(nc(C(F)(F)F)n2[C@H]2C[C@H](O)[C@@H](CO)O2)c(=O)[nH]1
inhibition [2]: Dose-dependent effect
IC50 [2]: 76 µM
inhibition [3]: Dose-dependent effect
IC50 [3]: 72 µM
IC50 [4]: 210 µM
inhibition (INH) ([4]; human, hacat): Dose-dependent effect
IC50 [5]: 234 µM
inhibition (INH) ([5]; rat, l6, 48 h): Dose-dependent effect
inhibition [6]: Dose-dependent effect
IC50 [6]: 92 µM

SMILES: Nc1nc(=O)n([C@H]2C[C@H](O)[C@@H](CO)O2)cc1C(F)(F)F
IC50 [2]: 32 µM
IC50 [3]: 25 µM
IC50 [4]: 140 µM
IC50 [5]: 155 µM
IC50 [6]: 44 µM

SMILES: Nc1ncnc2c1ncn2[C@H]1C[C@H](O)[C@@H](CO)O1 [DEOXYADENOSINE]
IC50 [2]: > 250 µM
IC50 [3]: > 250 µM
IC50 [4]: > 250 µM
IC50 [5]: > 250 µM
IC50 [6]: > 250 µM

SMILES: Nc1ncnc2c1nc(C(F)(F)F)n2[C@H]1C[C@H](O)[C@@H](CO)O1
IC50 [2]: 65 µM
IC50 [3]: 50 µM
IC50 [4]: 214 µM
IC50 [5]: 225 µM
IC50 [6]: 81 µM

SMILES: Nc1ccn([C@H]2C[C@H](O)[C@@H](CO)O2)c(=O)n1 [DOXECITINE]
IC50 [2]: > 250 µM
IC50 [3]: > 250 µM
IC50 [4]: > 250 µM
IC50 [5]: > 250 µM
IC50 [6]: > 250 µM

SMILES: O=c1[nH]cnc2c1ncn2[C@@H]1O[C@H](CO)[C@@H](O)[C@H]1O [INOSINE]
IC50 [2]: > 250 µM
IC50 [3]: > 250 µM
IC50 [4]: > 250 µM
IC50 [5]: > 250 µM
IC50 [6]: > 250 µM

SMILES: Nc1nc(O)c2ncn([C@H]3C[C@H](O)[C@@H](CO)O3)c2n1 [DEOXYGUANOSINE]
IC50 [2]: > 250 µM
IC50 [3]: > 250 µM
IC50 [4]: > 250 µM
IC50 [5]: > 250 µM
IC50 [6]: > 250 µM

SMILES: O=c1[nH]cnc2c1nc(C(F)(F)F)n2[C@@H]1O[C@H](CO)[C@@H](O)[C@H]1O
IC50 [2]: 105 µM
IC50 [3]: 131 µM
IC50 [4]: 170 µM
IC50 [5]: 195 µM
IC50 [6]: 142 µM

IC50 [1]: 10 µM
SMILES: Nc1ccn([C@H]2C=C(C(F)(F)F)[C@@H](CO)O2)c(=O)n1
